# According to US12590096B2, “Imidazo[2,1-f][1,2,4]triazin-4-amine as TLR8 agonists” (BeOne Medicines | GmbH, priority 2019, dated 2026):
# Like-named read-outs stand apart in the source and are kept apart here.
# Assays:
# [1] = tested on: PBMC (peripheral blood monocyte); test: PBMC determination: cytokines in culture supernatant measured by HTRF; format: cell-based; conditions: human PBMC, 24 h
# Procedure: Determination of PBMC (Peripheral Blood Monocyte) Cell Preparation, Separation and Culture
# Human whole blood was collected from healthy volunteers using BD Vacutainer® Lithium Heparin Tubes. PBMCs were prepared using Ficoll separation medium (GE Healthcare) by SopMate™ (STEMCELL). The cell survival rate was over 85% as monitored by Countstar. PBMCs were cultured in RPMI 1640 (Gibco) 10% (v/v) FBS (Gibco), 1×MEM NEAA (Gibco), 1× GlutaMAX (Gibco), 1 mM sodium pyruvate (Gibco), 50 uM 2-mercaptoethanol (sigma), and 100 U/ml penicillin-streptomycin (Thermo fisher Scientific).
# PBMCs were plated into 96-well plates (costar 3894) with a density of 2×10^5 cells/well. Then, TLR7/8 compound was added, and serial dilution was carried out at ten points. The final concentration in 0.1% DMSO/RPMI 1640 ranged from 1 nM to 10 μM. Then, the plates were incubated in 5% CO2 at 37° C. for 24 h.
# HTRF (Homogeneous Time-Resolved Fluorescence)
# After the specified time point, according to the manufacturers recommendations, the cytokines in the cell culture supernatant were measured by Human IL6 kit (cisbio) and Human TNF alpha kit (cisbio). The EC50 of each compound was determined by calculating the maximum activation percentage identified using Resiquimod or Motolimod.
# [2] = target: T1, human TLR 8 protein in HEK-blue hTLR 8 tool cell line (Homo sapiens, UniProt Q9NR97); test: TLR8 stimulation determined by HEK-Blue Detection (NF-κB/SEAP reporter); format: cell-based; conditions: HEK-Blue hTLR8 cells, 16 h incubation, relative to maximum activation by Resiquimod or motolimod; read-out: EC50 (nmol)
# T1 construct: expressed in transfected cells; host or cells: HEK293 (HEK-Blue hTLR8)
# T1 sequence (Q9NR97 27-1041): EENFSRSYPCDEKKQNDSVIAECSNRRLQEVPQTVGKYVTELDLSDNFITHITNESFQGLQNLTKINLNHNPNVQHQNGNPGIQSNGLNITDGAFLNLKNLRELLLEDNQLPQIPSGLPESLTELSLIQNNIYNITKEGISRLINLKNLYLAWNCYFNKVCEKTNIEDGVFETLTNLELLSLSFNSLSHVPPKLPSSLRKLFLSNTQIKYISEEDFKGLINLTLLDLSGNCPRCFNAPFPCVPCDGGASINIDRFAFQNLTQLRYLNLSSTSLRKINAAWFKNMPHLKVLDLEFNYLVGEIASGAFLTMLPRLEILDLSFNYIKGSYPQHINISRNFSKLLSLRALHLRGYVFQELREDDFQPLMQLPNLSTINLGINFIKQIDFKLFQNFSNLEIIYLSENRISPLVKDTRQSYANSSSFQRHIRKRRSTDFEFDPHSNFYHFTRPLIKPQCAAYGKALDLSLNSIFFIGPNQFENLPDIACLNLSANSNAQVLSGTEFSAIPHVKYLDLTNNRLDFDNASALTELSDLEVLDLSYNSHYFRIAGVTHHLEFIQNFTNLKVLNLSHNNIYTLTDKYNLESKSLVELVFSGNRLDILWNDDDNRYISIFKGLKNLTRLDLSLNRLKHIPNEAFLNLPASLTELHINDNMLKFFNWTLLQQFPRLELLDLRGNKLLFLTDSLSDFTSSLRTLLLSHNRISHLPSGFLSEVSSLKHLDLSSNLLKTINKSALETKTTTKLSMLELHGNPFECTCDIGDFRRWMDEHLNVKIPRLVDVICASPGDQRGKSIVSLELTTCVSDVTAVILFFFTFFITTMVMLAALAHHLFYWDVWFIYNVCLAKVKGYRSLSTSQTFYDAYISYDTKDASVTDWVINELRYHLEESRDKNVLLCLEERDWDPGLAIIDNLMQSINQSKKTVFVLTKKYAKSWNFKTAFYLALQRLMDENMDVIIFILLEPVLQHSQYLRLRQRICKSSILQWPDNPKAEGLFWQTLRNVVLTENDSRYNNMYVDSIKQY
# From the text: TLR8 Stimulation Determined by HEK-Blue Detection
# This assay was designed to study the stimulation of human TLR 8 protein in HEK-blue hTLR 8 tool cell line by monitoring the activation of NF-κB. HEK-blue hTLR8 cells were obtained by co-transfection of hTLR8 gene and optimized secretory embryonic alkaline phosphatase (SEAP) reporter gene into HEK293 cells. SEAP reporter gene was put under the control of […] minimal promoter fused with five NF-κB and AP-1-binding sites. NF-κB and AP-1 were activated by stimulation with TLR 8 ligand, thus inducing the expression of SEAP. The level of SEAP can be easily determined by HEK-Blue Detection (a cell culture medium that allows real-time detection of SEAP). HEK-Blue Detection comprises all nutrients needed for cell growth and specific SEAP color substrates. The hydrolysis of substrate by SEAP produces purple/blue color which can be measured by spectrophotometer.
# When growing to 50-80% confluence, HEK-Blue hTLR7/8 cells were plated into 96-well plates (costar 3599) at a density of 40,000 cells/well. Then, the compound serially diluted at 10 points with a final concentration ranging from 1 nM to 10 μm in 0.1% DMSO/HEK-Blue Detection was added. The plates were then incubated in 5% CO2 at 37° C. for 16 h. Optical density at 620-655 nm was read on BMG PHERAstar FSX instrument. The EC50 of each compound was determined by calculating the maximum activation percentage identified using Resiquimod or motolimod.
# The EC50 of the tested compound of the present invention is as follows.
# [3] = Human IL6 kit (HTRF), read-out: IL6 (EC50)
# [4] = Human TNF alpha kit (HTRF), read-out: TNF-alpha (EC50)
EC50 [2],SMILES,"EC50 [1, 3]","EC50 [1, 4]"
8.2 nM,"CCC[C@H](C)Oc1nc(N)c2ncc(CC3CCNCC3)n2n1 [Compound B6, (S)-2-(pent-2-yloxy)-7-(piperidin-4-ylmethyl)imidazo[2,1-f][1,2,4]triazin-4-amine]",162 nM,115 nM
47 nM,"CCC[C@H](C)Oc1nc(N)c2ncc(CC3CCN(CCN)CC3)n2n1 [Compound B38, (S)-7-((1-(2-aminomethyl)piperidin-4-yl)methyl)-2-(pent-2-yloxy)imidazo[2,1-f][1,2,4]triazin-4-amine]",28 nM,39 nM
63 nM,"CCC[C@H](C)Oc1nc(N)c2ncc(CC3CCCNCC3)n2n1 (stereo partly drawn) [Compound B25, 7-(azepan-4-ylmethyl)-2-(((S)-pent-2-yl)oxy)imidazo[2,1-f][1,2,4]triazin-4-amine]",236 nM,456 nM
19 nM,"CCC[C@H](C)Oc1nc(N)c2ncc(CC3CCN(CCNC)CC3)n2n1 [Compound B12, (S)-7-((1-(2-(methylamino)ethyl)piperidin-4-yl)methyl)-2-(pent-2-yloxy)imidazo[2,1-f][1,2,4]triazin-4-amine]",14 nM,10 nM
